# Data as given in patent US20230103444A1 (The Regents of the University of Colorado, a Body Corporate, priority 2020, published 2023).
# Columns and labels:
# cat-CHD1L ATPase = molecular target: T1, cat-CHD1L ATPase (Homo sapiens, UniProt Q86WJ1); experiment: CHD1L ATPase assay with recombinant catalytic domain (cat-CHD1L); type: biochemical; settings: for inhibition at 20 µM: confirmed HTS hits, HTS at 20 μM, read-out: inhibition against cat-CHD1L ATPase; for IC50: units given with the values (nM, μM), read-out: activity in dose response studies against cat-CHD1L ATPase (IC50, FIG. 1A)
# T1 construct: inferred from Ni-NTA / imidazole purification; made in house; host or cells: E. coli Rosetta 2 (DE3) pLysS; constructs were a gift from Helena Berglund, Karolinska Institute
# T1 sequence (Q86WJ1 16-611 limits assumed): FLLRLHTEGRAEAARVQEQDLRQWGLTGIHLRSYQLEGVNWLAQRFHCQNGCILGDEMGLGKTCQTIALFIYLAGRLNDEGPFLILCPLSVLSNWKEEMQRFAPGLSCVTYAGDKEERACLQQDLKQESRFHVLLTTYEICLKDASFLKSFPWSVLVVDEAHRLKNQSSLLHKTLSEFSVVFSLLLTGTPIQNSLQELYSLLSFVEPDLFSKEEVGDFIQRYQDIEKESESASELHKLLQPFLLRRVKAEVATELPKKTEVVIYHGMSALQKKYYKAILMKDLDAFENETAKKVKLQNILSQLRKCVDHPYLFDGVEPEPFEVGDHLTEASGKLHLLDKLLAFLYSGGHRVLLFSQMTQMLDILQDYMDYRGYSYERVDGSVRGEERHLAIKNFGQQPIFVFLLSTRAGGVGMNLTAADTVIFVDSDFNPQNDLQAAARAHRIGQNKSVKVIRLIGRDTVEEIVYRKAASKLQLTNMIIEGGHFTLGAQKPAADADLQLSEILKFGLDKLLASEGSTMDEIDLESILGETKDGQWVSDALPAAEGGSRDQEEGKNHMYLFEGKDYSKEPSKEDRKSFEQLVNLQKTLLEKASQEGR
# In short: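 Recombinant cat-CHD1L (100 nM) was incubated with 200 nM c-Myc DNA or mononucleosome in 50 mM Tris pH 7.5, 50 mM NaCl, 1 mM DTT and 5% glycerol, with 10 μM ATP, for 1 h at 37 °C. Background came from no-enzyme wells, with 1% DMSO and 10 mM EDTA as controls.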
# [1] = tested on: CRC042 patient-derived tumor organoids; experiment: Patient tumor organoid cytotoxicity; type: cell-based; settings: Homo sapiens; single agent, Table 4A
# [2] = Mouse liver microsome stability; settings: CD-1, mouse, liver microsomes; for half-life: female, initial study
# PDTO CRC102 = experiment: PDTO viability assay (CellTiter-Blue); type: cell-based; settings: Homo sapiens, 72 h, read-out: cytotoxicity EC50
# Procedure: CRC patient tumor tissues were obtained from the UCCC GI tissue bank and expanded following established protocols. [Morin et al., 1997]. Briefly, cells were seeded at 5,000 cells per well in 96-well plates and cultured by established methods [Franken et al., 2006] allowing PDTO formation over 72 h. […] PDTO cell viability was measured using CellTiter-Blue® reagent (Promega, Madison, Wis.). Media (80 μL) was aspirated from wells and 80 μL of the reagent was added and incubated for 4 h and cell viability was measured by fluorescence intensity using excitation 560 excitation and 590 emission.
# Procedure for SW620 tumor xenografts: In vivo studies. […] Body weight and tumor volumes were monitored 2×/week. […] In addition, irinotecan was administered i.p. at 50 mg/kg.
SMILES,inhibition at 20 µM (cat-CHD1L ATPase),IC50 (cat-CHD1L ATPase),IC50 [1],"half-life ([2]; Microsomal Half-life (min), female CD-1 mouse microsomes)",half-life ([2]; half-life in liver microsomes),"tumor volume, combination with irinotecan (SW620 tumor xenografts; compound 6 5 mg/kg i.p. 2×/day + irinotecan 60 mg/kg i.p. 1×/week, 28 days, vs single agents or control)","tumor volume after the last treatment, combination with irinotecan (SW620 tumor xenografts; compound 6 + irinotecan vs irinotecan alone, last treatment day 28)","survival of tumor-bearing mice, combination with irinotecan (SW620 tumor xenografts; compound 6 + irinotecan, compared to vehicle and single agents)","survival of tumor-bearing mice, compound alone (SW620 tumor xenografts; compound 6 alone, compared to vehicle)",EC50 (PDTO CRC102),"half-life at 10 μM ([2]; pH 7.4, in vitro liver microsome half-life, second series, different liver microsome preparation)"
COc1ccc(-c2nc(S(=O)(=O)c3ccccc3)c(S(C)(=O)=O)o2)cc1 [Compound 5],> 50%,900 to 5000 nM,,,,,,,,,
"Cc1cc(Nc2ccc(NC(=O)Cc3cccs3)cc2)nc(N2CCCC2)n1 [Compound 6, N-(4-((6-methyl-2-(pyrrolidin-1-yl)pyrimidin-4-yl)amino)phenyl)-2-(thiophen-2-yl)acetamide]",> 50%,900 to 5000 nM,18.6 µM,17 min,< 20 min,significantly inhibit colon SW620 tumor xenografts to almost no tumor volume,significantly inhibits colon SW620 tumors to almost no tumor volume beyond the last treatment,significantly increases the survival,significantly increases the survival,11.6 ± 2 µM,
"Cc1cc(Nc2ccc(NC(=O)c3c[nH]c4ccccc34)cc2)nc(N2CCCC2)n1 [Compound 6.3, N-(4-((6-methyl-2-(pyrrolidin-1-yl)pyrimidin-4-yl)amino)phenyl)-1H-indole-3-carboxamide]",,,,,,,,,,,98 min
